Experimental data reported in US7271148B2, “Inhibition of cellular proteases” (The Board of Regents of The University of Texas System, priority 1999, dated 2007).

Target: T1, μ-calpain (Homo sapiens, UniProt P07384)
T1 construct: purchased Calbiochem (San Diego, Calif.)
T1 sequence (P07384 1-714): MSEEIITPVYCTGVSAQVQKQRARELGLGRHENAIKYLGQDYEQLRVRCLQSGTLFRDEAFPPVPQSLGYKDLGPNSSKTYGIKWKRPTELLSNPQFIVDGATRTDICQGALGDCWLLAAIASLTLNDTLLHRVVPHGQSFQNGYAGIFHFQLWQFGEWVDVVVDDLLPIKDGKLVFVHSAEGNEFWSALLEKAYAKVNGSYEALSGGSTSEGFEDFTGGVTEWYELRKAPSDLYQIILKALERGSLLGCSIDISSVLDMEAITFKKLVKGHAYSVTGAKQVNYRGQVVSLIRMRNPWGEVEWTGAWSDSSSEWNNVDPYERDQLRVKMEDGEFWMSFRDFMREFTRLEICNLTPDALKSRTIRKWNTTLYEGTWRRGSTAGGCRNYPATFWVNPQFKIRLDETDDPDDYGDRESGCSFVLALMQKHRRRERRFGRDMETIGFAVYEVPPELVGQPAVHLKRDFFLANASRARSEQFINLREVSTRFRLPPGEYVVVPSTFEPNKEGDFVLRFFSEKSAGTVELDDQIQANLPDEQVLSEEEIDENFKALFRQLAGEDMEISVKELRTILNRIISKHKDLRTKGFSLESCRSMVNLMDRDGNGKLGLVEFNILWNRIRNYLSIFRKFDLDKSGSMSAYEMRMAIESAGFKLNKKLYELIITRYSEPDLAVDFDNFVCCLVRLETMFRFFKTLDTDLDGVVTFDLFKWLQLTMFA
T1 sequence (P04632 1-268 partner): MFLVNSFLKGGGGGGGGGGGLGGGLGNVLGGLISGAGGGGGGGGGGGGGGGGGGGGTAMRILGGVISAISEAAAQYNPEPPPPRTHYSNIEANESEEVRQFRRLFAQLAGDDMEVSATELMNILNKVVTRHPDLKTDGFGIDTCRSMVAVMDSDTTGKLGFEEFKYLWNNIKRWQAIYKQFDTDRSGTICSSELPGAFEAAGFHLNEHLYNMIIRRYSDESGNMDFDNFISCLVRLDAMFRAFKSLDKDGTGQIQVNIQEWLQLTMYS
Test: Cleavage of purified recombinant p21cip1 by purified μ-calpain
Assay type: biochemical
Settings: E64d 100 μM; 0.4 μg p21^cip1, 0.004 units μ-calpain, 30 min at 30° C.; Western blot (FIG. 19)
Procedure: Cleavage of p21^cip1 by calpain. Recombinant p21^cip1 was provided by Harper (37) or Ke (47), and was also prepared using the expression plasmid pET-p21 (37) according to the published methods (30). To evaluate the effect of calpains on p21^cip1, 400 ng of purified recombinant p21^cip1 was incubated with 0.004 units of either pure μ-calpain or m-calpain at 30° C. for 30 minutes in 40 μl of cleavage buffer, containing 25 mM Tris-HCl (pH 7.5), 100 mM NaCl, 3 mM DTT and 5 mM CaCl2 (44). EDTA was added to 10 mM to stop the reaction. An equal volume of 2×SDS gel-loading buffer (18) was mixed with the digestion mixture and the mixture was immediately boiled for 5 min. The digestion products were evaluated by Western blot analysis or SDS-PAGE and coomassie brilliant blue staining.
FIGS. 19 and 20. Cleavage of purified recombinant p21^cip1 by purified ubiquitous calpains. 19. p21^cip1 (0.4 μg) was incubated with μ-calpain (0.004 units) for 30 min at 30° C. in the presence or absence of E64d (100 μM) and the resulting products were analyzed by Western blot analysis, as described in Materials and Methods 20. p21^cip1 (4 μg) or casein (3 μg) was incubated with 0.04 units of μ-calpain or m-calpain for 30 min at 30° C. and the products of the digestion were examined by SDS-PAGE and coomassie brilliant blue staining. […]

CC(C)C[C@H](NC(=O)[C@H]1O[C@@H]1C(=O)O)C(=O)NCCCCN=C(N)N (relative stereo) [E64d, trans-epoxysuccinyl-L-leucylamido (4-guanidino)-butane]
proteolysis of p21^cip1 by μ-calpain (in words): inhibited the proteolysis
